Reference: US11214803B2, “Modulators of YAP1 expression” (Ionis Pharmaceuticals, Inc., priority 2019, dated 2022)
pIC50: −log10 of the molar value. Strand notation (5' to 3'): a small letter for the sugar, then the base; units joined by * are phosphorothioate-linked, units joined directly phosphodiester-linked; [ ] holds rarer units or linkages, { } end groups; capitals alone tell only the bases. e = 2'-O-(2-methoxyethyl) (MOE); k = constrained ethyl (cEt); [5mC] = 5-methylcytosine; d = 2'-deoxy (DNA); m = 2'-O-methyl

Test system: Yap1 mRNA
Assay: Dose-dependent inhibition of human Yap1 in SNU-449 cells (Example 9, RTS36584)
Type: cell-based
Conditions: free uptake; for % UTC (Yap1 mRNA): approximately 48 hours; for pIC50: linear regression on a log/linear plot
Summary of the method: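 Read-out was Yap1 mRNA (primer-probe RTS36584) normalised to total RNA by RIBOGREEN, given as % of untreated cells, with IC50 fitted by linear regression of log/linear data. Oligonucleotides were dosed by free uptake to SNU-449 cells, 10,000/well, for ~48 h.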

Row | Substance | % UTC (Yap1 mRNA) (31.3 nM) | % UTC (Yap1 mRNA) (125.0 nM) | % UTC (Yap1 mRNA) (500.0 nM) | % UTC (Yap1 mRNA) (2000.00 nM) | pIC50
1 | 1197193 (AGGATGCATGGTTTTT; chemistry not fully specified) [compound 1197193] | 85 % UTC | 52 % UTC | 24 % UTC | 11 % UTC | 6.70
2 | 1198570 (kG*k[5mC]*kA*d[5mC]*dT*dT*dT*dT*dA*d[5mC]*dA*dT*kT*kA*kG*eG) [compound 1198570] | 58 % UTC | 33 % UTC | 16 % UTC | 9 % UTC | 7.40
3 | 1198905 (kA*kT*dA*dT*dT*dA*dG*dA*dG*dT*dA*kT*dG*kT*dG*kG; antisense) [compound 1198905] | 75 % UTC | 43 % UTC | 21 % UTC | 6 % UTC | 7.00
4 | 1197236 (kT*kA*kT*dT*mA*dG*dA*dG*dT*dA*dT*dG*dT*kG*kG*k[5mC]; antisense) [compound 1197236] | 64 % UTC | 46 % UTC | 25 % UTC | 14 % UTC | 7.00
5 | 1200796 (kT*kT*kA*dG*dA*mG*dT*dA*dT*dG*dT*dG*dG*k[5mC]*kA*kA; antisense) [compound 1200796] | 69 % UTC | 47 % UTC | 25 % UTC | 12 % UTC | 7.00
6 | 1198406 (kG*d[5mC]*dT*dT*dT*dG*dG*dA*dA*dG*dA*kT*e[5mC]*kT*eG*kA; antisense) [compound 1198406] | 70 % UTC | 57 % UTC | 31 % UTC | 16 % UTC | 6.70
7 | 1198494 (kG*kT*dG*d[5mC]*dT*dT*dT*dG*dG*dA*dA*eG*kA*eT*k[5mC]*eT; antisense) [compound 1198494] | 59 % UTC | 37 % UTC | 24 % UTC | 13 % UTC | 7.00
8 | 1198352 (kT*kG*kT*dA*dT*dG*dT*d[5mC]*dA*dG*dA*dA*kG*eA*kG*eT; antisense) [compound 1198352] | 58 % UTC | 29 % UTC | 10 % UTC | 3 % UTC | 7.40
9 | 1009326 (kT*kA*kT*dT*dA*dG*dA*dG*dT*dA*dT*dG*dT*kG*kG*k[5mC]; antisense) [compound 1009326] | 59 % UTC | 35 % UTC | 14 % UTC | 4 % UTC | 7.30
10 | 1198409 (kA*dG*dT*dG*d[5mC]*dT*dT*dT*dG*dG*dA*kA*eG*kA*eT*k[5mC]; antisense) [compound 1198409] | 100 % UTC | 68 % UTC | 45 % UTC | 27 % UTC | 6.40
11 | 1198358 (kT*kT*kT*dA*dA*dA*dG*dT*dG*dT*dA*dT*kG*eT*k[5mC]*eA; antisense) [compound 1198358] | 68 % UTC | 39 % UTC | 20 % UTC | 8 % UTC | 7.00
12 | 1198786 (kT*eG*kT*dA*dT*dG*dT*d[5mC]*dA*dG*dA*dA*eG*eA*kG*kT) [compound 1198786] | 63 % UTC | 32 % UTC | 11 % UTC | 2 % UTC | 7.00
13 | 1198212 (kT*kA*dT*dT*dA*dG*dA*dG*dT*dA*dT*eG*eT*eG*kG*k[5mC]) [compound 1198212] | 74 % UTC | 35 % UTC | 10 % UTC | 2 % UTC | 7.00
14 | 1197235 (kA*kT*kT*dA*mG*dA*dG*dT*dA*dT*dG*dT*dG*kG*k[5mC]*kA; antisense) [compound 1197235] | 64 % UTC | 36 % UTC | 16 % UTC | 5 % UTC | 7.00
15 | 1198832 (kG*k[5mC]*dA*d[5mC]*dT*dT*dT*dT*dA*d[5mC]*dA*kT*eT*kA*eG*kG; antisense) [compound 1198832] | 77 % UTC | 53 % UTC | 23 % UTC | 13 % UTC | 7.00
16 | 1198213 (kA*kT*dA*dT*dT*dA*dG*dA*dG*dT*dA*eT*eG*eT*kG*kG) [compound 1198213] | 91 % UTC | 33 % UTC | 11 % UTC | 3 % UTC | 7.00
17 | 1198527 (kA*kA*dA*dG*dT*dG*dT*dA*dT*dG*dT*e[5mC]*kA*eG*kA*eA; antisense) [compound 1198527] | 63 % UTC | 35 % UTC | 12 % UTC | 3 % UTC | 7.00
18 | 1198470 (kT*kA*dT*dT*dA*dG*dA*dG*dT*dA*dT*eG*kT*eG*kG*e[5mC]; antisense) [compound 1198470] | 73 % UTC | 41 % UTC | 18 % UTC | 9 % UTC | 7.00
19 | 1197176 (kT*kG*kT*d[5mC]*dT*d[5mC]*dA*dT*dG*d[5mC]*d[5mC]*dT*dT*kA*kT*kA; antisense) [compound 1197176] | 66 % UTC | 37 % UTC | 19 % UTC | 6 % UTC | 7.00
20 | 1198550 (kA*kT*kA*dT*dG*dG*dA*dA*dA*dT*dT*dG*kT*k[5mC]*kT*e[5mC]) [compound 1198550] | 73 % UTC | 56 % UTC | 30 % UTC | 13 % UTC | 6.70
21 | 1198524 (kT*kG*dT*dA*dT*dG*dT*d[5mC]*dA*dG*dA*eA*kG*eA*kG*eT; antisense) [compound 1198524] | 50 % UTC | 32 % UTC | 9 % UTC | 3 % UTC | > 7.52
22 | 1198460 (kG*kA*dA*dA*dT*dT*dG*dT*d[5mC]*dT*d[5mC]*eA*kT*eG*k[5mC]*e[5mC]; antisense) [compound 1198460] | 60 % UTC | 49 % UTC | 28 % UTC | 11 % UTC | 7.00
23 | 1198804 (kT*kG*dT*d[5mC]*dT*d[5mC]*dA*dT*dG*d[5mC]*d[5mC]*kT*eT*kA*eT*kA; antisense) [compound 1198804] | 71 % UTC | 48 % UTC | 19 % UTC | 5 % UTC | 7.00
24 | 1198397 (k[5mC]*dA*d[5mC]*dT*dT*dT*dT*dA*d[5mC]*dA*dT*kT*eA*kG*eG*kA; antisense) [compound 1198397] | 70 % UTC | 53 % UTC | 28 % UTC | 14 % UTC | 7.00
